What was measured:
Assay type in all cases: in vivo
Aphis gossypii = assay: Insecticidal activity (controlling value) on cotton grown from treated seeds; details: soil treated with flumioxazin 50 or 75 g/ha, six days after release of Aphis gossypii
Method: For evaluating the insecticidal activity, life or death of an insect at investigation is determined, and a controlling value is obtained by the following equation:
Controlling value(%)=100×(1−T/C)
C: Number of insects at observation of non-treated section T: Number of insects at observation of treated-section
(§1) Into a plastic cup having an internal diameter of 96 millimeters and a height of 44 millimeters are placed 25 microliters of a clothianidin suspension (suspension containing 600 g/L clothianidin, trade name: NipsIt INSIDE, manufactured by Valent USA) and 50 grains of cotton seeds. By shaking this plastic cup with a hand, the clothianidin suspension is attached to the cotton seeds.
Fifteen days after seeding with the cotton seeds, a cotton leaf piece on which 20 larvae and 20 adults of Aphis gossypii inhabited is placed in the pot, and the whole plant is covered with a nylon cloth.
(§2) Six days after release of Aphis gossypii, the insecticidal activity, herbicidal activity and phytotoxicity are determined, and high weed controlling activity (>80) and high Aphis gossypii control value (>70) are obtained, and the phytotoxicity on the cotton is “no damage”. […]

cotton = assay: Phytotoxicity on crop; set-up: key: when phytotoxicity is hardly perceived, it is represented by “no damage”; when slight phytotoxicity is perceived, it is represented by “slight”; when moderate phytotoxicity is perceived, it is represented by “moderate”; when severe phytotoxicity is perceived, it is represented by “severe”; details: soil treated with flumioxazin 50 or 75 g/ha 15 days before seeding
From the text: For evaluation of phytotoxicity on a crop, when phytotoxicity is hardly perceived, it is represented by “no damage”, when slight phytotoxicity is perceived, it is represented by “slight”, when moderate phytotoxicity is perceived, it is represented by “moderate”, and when severe phytotoxicity is perceived, it is represented by “severe”. The “phytotoxicity” evaluated herein is a damage characteristic determined to be caused by the treated compound, and is clearly discriminated from a damage characteristic caused by a pest.
as §1
Into a pot made of a plastic having an internal diameter of 177 millimeters and a height of 140 millimeters is packed a soil in which each of about 500 milligrams of seeds of Conyza canadensis, Amaranthus palmeri and Chenopodium album are mixed. A liquid of a flumioxazin water dispersible granule (water dispersible granule containing 51% of flumioxazin, trade name: Valor SX, manufactured by Valent USA) diluted with water is uniformly sprayed on the soil surface of this pot with a sprayer, so that flumioxazin is applied in an amount of 50 or 75 g/ha. Fifteen days after spraying, the cotton seeds are seeded at 5 grains per pot.
Six days after release of Aphis gossypii, the insecticidal activity, herbicidal activity and phytotoxicity are determined, and high weed controlling activity (>80) and high Aphis gossypii control value (>70) are obtained, and the phytotoxicity on the cotton is “no damage”.
Into a plastic cup having an internal diameter of 96 millimeters and a height of 44 millimeters are placed 25 microliters of a thiamethoxam preparation (preparation containing 600 g/L thiamethoxam, trade name: Cruiser 5FS, manufactured by Syngenta) and 50 grains of cotton seeds. By shaking this plastic cup with a hand, the thiamethoxam preparation is attached to the cotton seeds.

[1] = tested on: Conyza canadensis, Amaranthus palmeri and Chenopodium album; assay: Herbicidal activity in pot test, soil surface treated before seeding with treated cotton seeds; details: assessed 21 days after seeding
From the text: Evaluation of herbicidal activity is classified into 0 to 100, letting no or little difference when the state of germination or growth of a test weed at investigation is compared with that of non-treatment to be “0”, and letting complete withering of a test weed or complete inhibition of germination or growth to be “100”.
as §1
Into a pot made of a plastic having an internal diameter of 177 millimeters and a height of 140 millimeters is packed a soil in which each of about 500 milligrams of seeds of Conyza canadensis, Amaranthus palmeri and Chenopodium album are mixed. […]
as §2

[2] = Example 1: clothianidin-treated cotton seeds
[3] = Example 2: thiamethoxam-treated cotton seeds

Structure (SMILES) | Aphis gossypii control value (Aphis gossypii; Example 1: clothianidin suspension (NipsIt INSIDE, 600 g/L) 25 microliters per 50 cotton seeds) | phytotoxicity on the cotton (cotton; [2]) | Aphis gossypii control value (Aphis gossypii; Example 2: thiamethoxam preparation (Cruiser 5FS, 600 g/L) 25 microliters per 50 cotton seeds) | phytotoxicity on the cotton (cotton; [3]) | weed controlling activity (herbicidal activity, scale 0 to 100) ([1]; Example 1: flumioxazin (Valor SX) 50 or 75 g/ha on soil surface 15 days before seeding, cotton seeds treated with clothianidin) | weed controlling activity (herbicidal activity, scale 0 to 100) ([1]; Example 2: flumioxazin (Valor SX) 50 or 75 g/ha on soil surface 15 days before seeding, cotton seeds treated with thiamethoxam)
CN/C(=N\[N+](=O)[O-])NCc1cnc(Cl)s1 [clothianidin] | > 70% | no damage |  |  |  | 
CN1COCN(Cc2cnc(Cl)s2)/C1=N\[N+](=O)[O-] [thiamethoxam] |  |  | > 70% | no damage |  | 
C#CCN1C(=O)COc2cc(F)c(N3C(=O)C4=C(CCCC4)C3=O)cc21 [flumioxazin] |  | no damage |  | no damage | > 80 | > 80
